Key:
[1] = test system: adult rat MTτ; experiment: Arachidonic acid dependence of tau assembly, adult rat MTτ; type: biochemical
Description: (§1) For most experiments, tau proteins were diluted to 2× the desired concentration in buffer A, then 1/2 in borate saline (0.1 M H3BO3, 25 mM Na2B4O7, 75 mM NaCl) supplemented with 20 mM dithiothreitol (DTT) and 2× the required concentration of free fatty acids (final pH ˜8.4). Assembly was performed at 37° C. in siliconized microfuge tubes. For evaluating the dependence of assembly on ionic strength, tau was diluted 1/10 into 111 mM Tris pH 7.2, 11 mM DTT, supplemented to give the indicated final concentrations of NaCl. At 250 mM NaCl, the measured CMC of arachidonic acid in the Tris buffering system was >2 mM. […] For staining of amyloid filaments, 4% uranyl acetate was used and the H2O rinse was omitted. […] For filament length measurements, random micrographs obtained at a nominal magnification of 15K were digitized and traced using either software from Universal Imaging Corporation or the public domain NIH Image program (for Macintosh; written by W. Rasband at the NIH and available from the Internet by anonymous ftp from zippy.nimh.nih.gov or on floppy disk from NTIS, 5285 Port Royal Rd., Springfield, Va. 22161, part number PB93-504868). […] Because short filaments were sometimes difficult to distinguish from background debri in digitized images, high concentrations of DTT were routinely used in order to maximize the production of longer filaments.

[2] = biological target: T1, juvenile rat MTτ (Rattus norvegicus, UniProt P19332, DEL587-617); experiment: Fatty acid dependence of tau assembly, polymer length per field by electron microscopy; type: biochemical; conditions: for Polymer Mass (μm/field) / % maximum: 50 μM free fatty acid, 72 hours; for Polymer Mass (μm/field): juvenile rat MTτ, average ± S.E.M. (n = 12); for % maximum: relative to the maximal assembly achieved with arachidonic acid; for stimulation of tau assembly, qualitative examination of grids: 50 μM, below measured CMC values
T1 construct: killed by decapitation at postnatal day 11 (juveniles); from tissue; host or cells: brain microtubules of P11 Sprague-Dawley rats
Description: (§2) All free fatty acids were purchased in the cis conformation and at maximum available purity from Sigma Chemical Company free fatty acids were diluted into tau and amyloid samples from a 200× ethanolic stock, such that the final ethanol concentration in all samples and controls was 0.5%.
Assembly was performed at 37° C. in siliconized microfuge tubes.
(§3) For staining of amyloid filaments, 4% uranyl acetate was used and the H2O rinse was omitted. […] Because short filaments were sometimes difficult to distinguish from background debri in digitized images, high concentrations of DTT were routinely used in order to maximize the production of longer filaments.

[3] = Critical micellar concentration by phase partitioning of phenylnaphthylamine; type: physicochemical; conditions: for CMC: free fatty acids diluted into assembly buffer
Description: as §2, with “0.5%. Values for the critical micellar concentration (CMC) were obtained based on the phase partitioning of […] phenylnaphthylamine (Kovatchev et al., 1981) when free fatty acids were diluted into assembly buffer.” for “0.5%.”
For most experiments, tau proteins were diluted to 2× the desired concentration in buffer A, then 1/2 in borate saline (0.1 M H3BO3, 25 mM Na2B4O7, 75 mM NaCl) supplemented with 20 mM dithiothreitol (DTT) and 2× the required concentration of free fatty acids (final pH ˜8.4). Assembly was performed at 37° C. in siliconized microfuge tubes. For evaluating the dependence of assembly on ionic strength, tau was diluted 1/10 into 111 mM Tris pH 7.2, 11 mM DTT, supplemented to give the indicated final concentrations of NaCl. At 250 mM NaCl, the measured CMC of arachidonic acid in the Tris buffering system was >2 mM.

[4] = biological target: T2, human recombinant tau (Homo sapiens, UniProt P10636); experiment: Arachidonic acid dependence of tau assembly, human recombinant tau; type: biochemical; conditions: 20-80 μM arachidonic acid, 66 hours; no spontaneous assembly
T2 construct: the conditions defined herein are conducive to assembly of the full length tau protein; polyhistidine tag; host or cells: E. coli
From the text: Sprague-Dawley rats were obtained from Charles River, Wilmington, Mass., and killed by decapitation at postnatal day 11 (juveniles) or at greater than six weeks of age (adults). Fresh porcine brains were obtained from Bryan Meat Packing, Westpoint Miss. Detailed protocols for the isolation of tau from whole brain or twice-cycled brain microtubules have been described above. Nonphosphorylated, recombinant human tau (htau40; Goedert et al., 1989) was the gift of Dr. Jeff Kuret, Northwestern University Medical School, Chicago, Ill. Recombinant tau was produced in E. coli as a fusion protein with a polyhistidine tag, and purified to near homogeneity by nickel-chelate and gel filtration chromatography (Carmel et al., 1994). Following purification tau isolates were dialyzed against buffer A (20 mM morpholinoethanesulfonic acid pH 6.8, 80 mM NaCl, 2 mM EGTA, 1 mM MgCl2, 0.1 mM EDTA) and stored at −80° C. Protein concentrations were determined using the method of Lowry (Lowry et al., 1951), after samples in Laemmli sample buffer (Laemmli, 1970) were precipitated with 10 volumes of 10% perchloric acid, 1% phosphotungstic acid. Bovine serum albumin was used as the standard. […] At 250 mM NaCl, the measured CMC of arachidonic acid in the Tris buffering system was >2 mM. […]

[5] = test system: tau purified from porcine whole brain; experiment: Arachidonic acid dependence of tau assembly, porcine whole brain tau; type: biochemical; conditions: 20-80 μM arachidonic acid, 66 hours; no spontaneous assembly
Description: as §3, with “Assembly was performed at 37° C. in siliconized microfuge tubes. […] For” for “For”

[6] = test system: tau; experiment: Arachidonic acid stimulated polymerization, all tau preparations examined; type: biochemical; conditions: tau concentrations of 2.5-5 μM
Description: as §1

[7] = biological target: T3, Aβ1-40 (Homo sapiens, UniProt P05067); experiment: Amyloid peptide assembly, thioflavin T fluorescence spectroscopy; type: biochemical; conditions: for fatty acid concentration giving significant increases in polymer content: thioflavin T fluorescence, 24 hours
T3 construct: Aβ1-40 (Amyloid β-protein, residues 1-40, Sigma); purchased Sigma
Description: (§4) Aβ1-40 (Amyloid β-protein, residues 1-40, Sigma) was resuspended in Aβ assembly buffer (100 mM Tris pH 7.4, 150 mM NaCl) at a concentration of 0.5 mg/ml, and frozen in aliquots at −80° C. Thawed aliquots were diluted to […] in assembly buffer, and following a 2 hour pre-incubation, were centrifuged for 10 min at 14,000 rpm in an Eppendorf 5415C desktop centrifuge. The clarified solution was then supplemented with free fatty acids (final Aβ concentration ˜[…]), and incubated for 24 hours. Care was taken to perform all procedures at 4° C.
Fluorescence spectroscopy was performed essentially as described (Castano et al., 1995). Aliquots were diluted 1/6 into 67 mM glycine pH 9, […] thioflavin T, vortexed, and placed in a quartz cuvette. Samples were read on a Perkin Elmer LS-50B luminescence spectrometer, excitation=435 nm, emission=485 nm, slit widths=5 nm. The integrated intensity was averaged from the initial ten, 10 sec sampling intervals. The signal was stable for at least several hours. The fluorescence of five samples lacking Aβ was averaged and subtracted as background from all readings.

[8] = biological target: T3, Aβ1-40; experiment: Amyloid peptide assembly, electron microscopy; type: biochemical; conditions: 24 hour incubation with 40 mM oleic acid or 50 mM linoleic acid
Description: as §4
For staining of amyloid filaments, 4% uranyl acetate was used and the H2O rinse was omitted. […] For filament length measurements, random micrographs obtained at a nominal magnification of 15K were digitized and traced using either software from Universal Imaging Corporation or the public domain NIH Image program (for Macintosh; written by W. Rasband at the NIH and available from the Internet by anonymous ftp from zippy.nimh.nih.gov or on floppy disk from NTIS, 5285 Port Royal Rd., Springfield, Va. 22161, part number PB93-504868). […] Because short filaments were sometimes difficult to distinguish from background debri in digitized images, high concentrations of DTT were routinely used in order to maximize the production of longer filaments.

[9] = test system: microtubule tau purified from P11 rat, adult rat; conditions: glutathione 1-10 mM
Description: In general, tau stored at −80° C. in buffer A was thawed at 4° C., diluted into 100 mM Tris pH 7.2 containing DTT or b-mercaptoethanol (bME), and incubated at 37° C. 100 mM MES was used for experiments requiring buffering below pH 7. Final tau concentrations were in the range of 1-10 μM. […] Samples were deposited in 10 ml aliquots onto 400 mesh nickel grids coated with 0.4% formvar, rinsed with 5 drops H2O, and stained with 5 drops of 2% uranyl acetate, the last drop sitting 1 minutes prior to blotting. Grids were examined using a JEOL JEM-100CX transmission electron microscope operated at 80 kV. For filament length measurements, micrographs obtained at a nominal magnification of 15K (FIG. 6) or 10K (FIGS. 7 and 9) were digitized using a SIT68 camera (MTI), and lengths were determined using software from Universal Imaging Corporation. Only filaments contained completely within a field and measuring at least 50 nm were included in data sets. Fields selected at random were chosen at low illumination and without the aid of the 10× binoculars, so that Formvar integrity could be assessed without viewing the filaments present.

T3 sequence (P05067 672-711 limits assumed): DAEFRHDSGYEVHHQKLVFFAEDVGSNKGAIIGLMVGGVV
T1 sequence (P19332 with tags, fused parts or gaps isoform P19332-6 DEL209-239): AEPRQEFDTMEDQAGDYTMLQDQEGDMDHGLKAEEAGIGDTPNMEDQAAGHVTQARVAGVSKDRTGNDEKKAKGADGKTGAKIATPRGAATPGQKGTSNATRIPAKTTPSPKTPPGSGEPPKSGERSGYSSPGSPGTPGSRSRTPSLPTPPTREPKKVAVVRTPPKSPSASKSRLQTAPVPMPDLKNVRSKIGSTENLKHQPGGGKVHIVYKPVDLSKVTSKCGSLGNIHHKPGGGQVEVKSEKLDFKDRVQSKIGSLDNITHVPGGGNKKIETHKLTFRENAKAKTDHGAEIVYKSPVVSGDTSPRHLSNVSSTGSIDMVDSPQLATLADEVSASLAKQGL
T2 sequence (P10636 1-441 isoform P10636-8): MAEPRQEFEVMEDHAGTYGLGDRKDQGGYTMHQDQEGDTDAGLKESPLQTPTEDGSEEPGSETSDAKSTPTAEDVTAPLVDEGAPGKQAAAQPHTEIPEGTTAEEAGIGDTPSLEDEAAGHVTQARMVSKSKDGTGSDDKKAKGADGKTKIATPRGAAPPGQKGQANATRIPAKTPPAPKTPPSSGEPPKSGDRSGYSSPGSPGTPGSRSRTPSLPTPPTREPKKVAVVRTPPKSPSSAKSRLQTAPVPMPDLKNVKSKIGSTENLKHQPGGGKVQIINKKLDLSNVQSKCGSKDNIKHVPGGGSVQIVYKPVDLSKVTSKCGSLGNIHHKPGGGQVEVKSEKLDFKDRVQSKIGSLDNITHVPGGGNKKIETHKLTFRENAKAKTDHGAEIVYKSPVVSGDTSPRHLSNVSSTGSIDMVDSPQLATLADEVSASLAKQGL

| Structure (SMILES) | Polymer Mass (μm/field) [2] | % maximum [2] | CMC [3] | also measured |
| --- | --- | --- | --- | --- |
| O[C@H](CS)[C@H](O)CS (racemic) [DTT, dithiothreitol] | – | – | – | decrease in total polymer mass ([1]; assembly at 10 mM DTT compared with 0.01-1.0 mM DTT, adult tau, 50 μM arachidonic acid): > 50% |
| CCC=CCC=CCC=CCC=CCC=CCCCC(=O)O [5,8,11,14,17-eicosapentaenoic acid] | 11.81 ± 1.51 μm/field | 48% | – | – |
| CCCCCC=CCC=CCC=CCC=CCCCC(=O)O [5,8,11,14-eicosatetraenoic acid (20:4), 5,8,11,14-eicosatetraenoic acid] | 24.51 ± 2.58 μm/field | 100% | 0.16 mM | apparent threshold for stimulation of tau assembly ([2]; juvenile MTτ, longest timepoint tested): less than 10 μμM; CMC in the Tris buffering system ([3]; 250 mM NaCl, Tris buffering system): > 2 mM; filament formation, human recombinant tau [4]: Filaments were observed; filament formation, tau purified from porcine whole brain [5]: Filaments were observed; polymerization of adult rat MTτ ([1]; arachidonic acid 10-40 μM): stimulated the polymerization; lowest concentration inducing assembly [6]: 10 to 20 µM |
| CCCCCC=CCC=CCC=CCCCCCCC(=O)O [8,11,14-eicosatrienoic acid (20:3), 8,11,14-eicosatrienoic acid] | 7.99 ± 1.55 μm/field | 33% | – | – |
| CC/C=C\C/C=C\C/C=C\CCCCCCCC(=O)O [9,12,15-linolenic acid (18:3), 9,12,15-linolenic acid] | 4.01 ± 0.72 μm/field | 16% | – | – |
| CCCCC/C=C\C/C=C\CCCCCCCC(=O)O [9,12-linoleic acid (18:2), 9,12-linoleic acid] | 14.74 ± 3.31 μm/field | 60% | 0.21 mM | relative potency as inducer of amyloid assembly ([7]; at higher concentrations of free fatty acids (above 40 μM)): more potent inducer of amyloid assembly; fatty acid concentration giving significant increases in polymer content [7]: 40 µM; amyloid filament lengths by electron microscopy [8]: dramatic increase in filament lengths |
| CCCCCCCC/C=C\CCCCCCCC(=O)O [9-oleic acid (18:1), 9-oleic acid] | 7.36 ± 1.77 μm/field | 30% | 0.59 mM | fatty acid concentration giving significant increases in polymer content [7]: 40 µM; amyloid filament lengths by electron microscopy [8]: dramatic increase in filament lengths |
| CCCCCC/C=C\CCCCCCCC(=O)O [9-palmitoleic acid (16:1), 9-palmitoleic acid] | 23.69 ± 4.11 μm/field | 97% | 0.44 mM | – |
| CCCCCC=CCC=CCCCCCCCCCC(=O)O [11,14-eicosadienoic acid (20:2), 11,14-eicosadienoic acid] | 1.20 ± 0.32 μm/field | 5% | – | – |
| CCCCCCCCC=CCCCCCCCCCC(=O)O [11-eicosenoic acid (20:1), 11-eicosenoic acid] | 8.23 ± 1.36 μm/field | 34% | – | – |
| CCCCC/C=C\C/C=C\C/C=C\C/C=C\CCCC(=O)OCC [ethyl ester of arachidonic acid] | – | – | – | stimulation of tau assembly, qualitative examination of grids [2]: did not appear to be stimulated |
| N[C@@H](CCC(=O)N[C@@H](CS)C(=O)NCC(=O)O)C(=O)O [glutathione] | – | – | – | assembly of microtubule tau (rat) [9]: promoted the assembly |
| CCCCC/C=C\C/C=C\C/C=C\C/C=C\CCCC(=O)OC [methyl ester of arachidonic acid] | – | – | – | stimulation of tau assembly, qualitative examination of grids [2]: did not appear to be stimulated |
| CCCCCCCCCCCCCC(=O)O [myristic acid (14:0), myristic acid] | 5.50 ± 0.76 μm/field | 22% | >1 mM | – |
| CCCCCCCCCCCCCCCC(=O)O [palmitic acid (16:0), palmitic acid] | 7.37 ± 0.92 μm/field | 30% | – | – |
| CCCCCCCCCCCCCCCCCC(=O)O [stearic acid (18:0), stearic acid] | 3.60 ± 0.54 μm/field | 15% | >1 mM | – |

From patent publication US6458847B1, “Method for screening for drugs useful in inhibition of polymerization of aβ and tau peptides” (University of Alabama at Birmingham Research Foundation, priority 1995, dated 2002)
